Measured values as given in patent US7125955B2, “NIMA interacting proteins” (The Salk Institute for Biological Studies, priority 1995, dated 2006).

Biological target: T1, Pin1 (Homo sapiens, UniProt Q13526)
T1 construct: PTPI-PIN1 directs the synthesis of the native full length Pin1 protein; (His)6 (N); made in house; host or cells: E. coli BL21
Test: PPIase assay: inhibition of Pin1 PPIase activity
Type: biochemical
Conditions: even at 25 μM
Protocol: PPIase activity of the purified recombinant proteins was assayed using the procedure of Heitman et al. (Methods, 5:176, 1993) with the following exceptions. The reaction was carried out 5° C. and chymotrypsin was added just before the peptide substrate (N-Succ-Ala-Pro-Phe-p-nitroanilide, Sigma). The cis to trans isomerization was monitored every 6 seconds by a change in the absorbance at 395 nm using DMS 2000 UV and Visible Spectrophotometer (Varian). FKBP, cyclosporin A and FK520, a FK506 derivative, were gifts of D. Schultz and C. Zuker; University of California, San Diego.
Because of the strong sequence in similarity between Pin1 and the third PPIase family, Pin was tested to determine if Pin could catalyze the cis/trans isomerization of peptidyl-prolyl peptide bonds in vitro, a characteristic of PPIase. Pin1 was expressed in bacteria with an N-terminal (His)6 tag and was purified from bacteria using a […] agarose column. […] The isomerase activity was measured as described in Example 1. The cis to trans isomerization was monitored every 6 seconds by a change in the absorbance at 395 nm, with the finally stable absorbance of each sample being set at 1.0. Different concentrations of Pin1 were used as indicated, with the recombinant FK506-binding protein (FKBP) PPIase being used as a positive control. The control sample contained all the ingredients except the PPIase. […]

T1 sequence (Q13526 whole entry): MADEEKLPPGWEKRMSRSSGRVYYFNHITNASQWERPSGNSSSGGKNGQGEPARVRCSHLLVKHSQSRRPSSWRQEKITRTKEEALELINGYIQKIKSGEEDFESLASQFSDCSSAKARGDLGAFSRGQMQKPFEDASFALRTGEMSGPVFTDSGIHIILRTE

Structure (SMILES): CC[C@@H]1/C=C(\C)C[C@H](C)C[C@H](OC)[C@H]2O[C@@](O)(C(=O)C(=O)N3CCCC[C@H]3C(=O)O[C@H](/C(C)=C/[C@@H]3CC[C@@H](O)[C@H](OC)C3)[C@H](C)[C@@H](O)CC1=O)[C@H](C)C[C@@H]2OC [FK520]
- inhibition of the PPIase activity of Pin1: not inhibited
